According to ChEMBL document CHEMBL5230086, “Contemporary approaches and future perspectives of antibacterial photodynamic therapy (aPDT) against methicillin-resistant Staphylococcus aureus (MRSA): A systematic review” (Eur J Med Chem, 2020):

Columns and labels:
[1] = test system: Staphylococcus aureus; assay: Photodynamic antibacterial activity against Methicillin-resistant Staphylococcus aureus assessed as reduction in bacterial colony forming unit at 50 microg/ml followed by photo-irradiation with 163.8 J/cm^2 for 10 to 30 mins; type: functional; conditions: dose 50 µg/ml; time 10-30 min
[2] = test system: Staphylococcus aureus; assay: Photodynamic antibacterial activity against Methicillin-resistant Staphylococcus aureus assessed as reduction in bacterial colony forming unit at 3 uM followed by photo-irradiation with 30 J/cm^2 for 30 mins; type: functional; conditions: 0.5 h
[3] = Photodynamic antibacterial activity against mix of Methicillin-resistant Staphylococcus aureus-Pseudomonas aeruginosa assessed as reduction in bacterial colony forming unit at 500 microg/ml followed by photo-irradiation with 664 nm for 400 sec; type: functional; conditions: dose 500 µg/ml, 0.1111 h
[4] = Photodynamic antibacterial activity against mix of Methicillin-resistant Staphylococcus aureus-Pseudomonas aeruginosa in maxillary sinus model assessed as reduction in bacterial colony forming unit at 0.03 % followed by photo-irradiation with 150 mW/cm^2 light by spectrophotometry; type: functional
[5] = Photodynamic antibacterial activity against mix of Methicillin-resistant Staphylococcus aureus-Pseudomonas aeruginosa in endotracheal tube model assessed as reduction in growth unit at 500 microg/ml followed by photo-irradiation with 108 J/cm^2 light for 12 mins; type: functional; parameters: scale not given: the % may be the effect or the level left; conditions: dose 500 µg/ml, 0.2 h
[6] = test system: Staphylococcus aureus; assay: Photodynamic antibacterial activity against Methicillin-resistant Staphylococcus aureus assessed as reduction in bacterial colony forming unit at 300 microg/ml followed by photo-irradiation with 664 nm for 400 sec; type: functional; conditions: dose 300 µg/ml, 0.1111 h
[7] = Photodynamic antibacterial activity against mix of Methicillin-resistant Staphylococcus aureus-Pseudomonas aeruginosa in maxillary sinus model assessed as reduction in bacterial growth at 0.03 % followed by photo-irradiation with 150 mW/cm^2 light by spectrophotometry; type: functional; parameters: scale not given: the % may be the effect or the level left
[8] = test system: Staphylococcus aureus; assay: Photodynamic antibacterial activity against Methicillin-resistant Staphylococcus aureus infected C57 mouse excision wound model assessed as fold reduction in bacterial growth at 100 microg/ml,po for 15 mins followed by photo-irradiation with 360 J/cm^2 light for 30 mins; type: functional; conditions: dose 100 µg/ml, time 45 min, 0.75 h
[9] = test system: Staphylococcus aureus; assay: Photodynamic antibacterial activity against Methicillin-resistant Staphylococcus aureus assessed as reduction in bacterial growth at 250 microg/ml followed by photo-irradiation with 100 J/cm^2 light for 100 sec; type: functional; parameters: scale not given: the % may be the effect or the level left; conditions: dose 250 µg/ml, 100 s
[10] = Photodynamic antibacterial activity against mix of Methicillin-resistant Staphylococcus aureus-Pseudomonas aeruginosa assessed as reduction in bacterial colony forming unit at 300 microg/ml followed by photo-irradiation with 664 nm for 400 sec; type: functional; conditions: dose 300 µg/ml, 0.1111 h
[11] = Cytotoxicity against C57BL/6NCr mouse Neutrophil assessed as cell viability followed by photo-irradiation with 20 mW/cm^2 light by tryptan blue dye based hemacytometer; type: toxicity; conditions: mouse neutrophils, read-out: Activity
[12] = test system: Staphylococcus aureus; assay: Photodynamic antibacterial activity against Methicillin-resistant Staphylococcus aureus infected C57 mouse superficial wound model assessed as fold reduction in bacterial growth at 100 microg/ml,po for 15 mins followed by photo-irradiation with 360 J/cm^2 light for 30 mins; type: functional; conditions: dose 100 µg/ml, time 45 min, 0.75 h
[13] = test system: Staphylococcus aureus; assay: Photodynamic antibacterial activity against Methicillin-resistant Staphylococcus aureus assessed as reduction in bacterial colony forming unit at 500 microg/ml followed by photo-irradiation with 664 nm for 400 sec; type: functional; conditions: dose 500 µg/ml, 0.1111 h
[14] = test system: Neutrophil; assay: Cytotoxicity against C57BL/6NCr mouse Neutrophil assessed as reduction in cell viability at 20 uM followed by photo-irradiation with 20 mW/cm^2 light by tryptan blue dye based hemacytometer; type: toxicity
[15] = test system: Staphylococcus aureus; assay: Photodynamic antibacterial activity against Methicillin-resistant Staphylococcus aureus in bovine bone assessed as reduction in bacterial colony forming unit at 1.5 g/L followed by photo-irradiation with 20.1 J/cm^2 light for 24 hrs by fluorescence spectroscopy; type: functional
[16] = test system: Staphylococcus aureus; assay: Photodynamic antibacterial activity against Methicillin-resistant Staphylococcus aureus infected Balb/C mouse assessed as reduction in lymph node bacterial colony forming unit at 1.5 %,ID followed by photo-irradiation with 54 J/cm^2 light measured upto 72 hrs; type: functional
[17] = test system: Staphylococcus aureus; assay: Photodynamic antibacterial activity against Methicillin-resistant Staphylococcus aureus assessed as reduction in bacterial growth at 30 uM followed by photo-irradiation with violet light for 10 to 120 min; type: functional; parameters: scale not given: the % may be the effect or the level left; conditions: time 10-120 min
[18] = test system: Staphylococcus aureus; assay: Photodynamic antibacterial activity against Methicillin-resistant Staphylococcus aureus assessed as reduction in bacterial growth at 120 uM followed by photo-irradiation with blue light for 10 to 120 min; type: functional; parameters: scale not given: the % may be the effect or the level left; conditions: time 10-120 min
[19] = test system: Staphylococcus aureus; assay: Photodynamic antibacterial activity against Methicillin-resistant Staphylococcus aureus assessed as reduction in bacterial growth at 0.01 % followed by photo-irradiation with 5405 J/cm^2 light for 30 min by microscopic analysis; type: functional; parameters: scale not given: the % may be the effect or the level left; conditions: 0.5 h
[20] = test system: Staphylococcus aureus; assay: Photodynamic antibacterial activity against Methicillin-resistant Staphylococcus aureus clinical isolate 2 assessed as reduction in bacterial growth at 0.01 % followed by photo-irradiation with 5.4 J/cm^2 light for 30 min by microscopic analysis; type: functional; parameters: scale not given: the % may be the effect or the level left; conditions: 0.5 h
[21] = test system: Staphylococcus aureus; assay: Photodynamic antibacterial activity against Methicillin-resistant Staphylococcus aureus clinical isolate 1 assessed as reduction in bacterial growth at 0.01 % followed by photo-irradiation with 5.4 J/cm^2 light for 30 min by microscopic analysis; type: functional; parameters: scale not given: the % may be the effect or the level left; conditions: 0.5 h
[22] = test system: Staphylococcus aureus; assay: Photodynamic antibacterial activity against Methicillin-resistant Staphylococcus aureus ATCC 43300 assessed as reduction in bacterial growth at 0.01 % followed by photo-irradiation with 412 nm at 5.4 J/cm^2 light for 10 min by microscopic analysis; type: functional; parameters: scale not given: the % may be the effect or the level left
[23] = test system: Staphylococcus aureus; assay: Photodynamic antibacterial activity against Methicillin-resistant Staphylococcus aureus ATCC 43300 assessed as reduction in bacterial growth at 0.01 % followed by photo-irradiation with 450 nm at 5.4 J/cm^2 light for 10 min by microscopic analysis; type: functional; parameters: scale not given: the % may be the effect or the level left
[24] = test system: Staphylococcus aureus; assay: Photodynamic antibacterial activity against Methicillin-resistant Staphylococcus aureus assessed as reduction in bacterial growth followed by photo-irradiation with 25 J/cm^2 light for 15 mins by crystal violet staining assay; type: functional; parameters: scale not given: the % may be the effect or the level left; conditions: 0.25 h
[25] = test system: Staphylococcus aureus; assay: Photodynamic antibacterial activity against Methicillin-resistant Staphylococcus aureus assessed as reduction in bacterial colony forming unit at 8 uM followed by photo-irradiation with 30 J/cm^2 light; type: functional

**Q.** For `CN(C)c1ccc2nc3ccc(N(C)C)cc3[s+]c2c1.[Cl-]` [METHYLENE BLUE ANHYDROUS], which Activity [1] is on record?
**A.** Its Activity is 2.2 log10CFU.

**Q.** What about the Activity [2] of the same compound?
**A.** Its Activity is 7 log10CFU.

**Q.** What about the Activity [3] of the same compound?
**A.** The Activity was 7.39 log10CFU.

**Q.** What about the Activity [4] of the same compound?
**A.** The Activity was 5 log10CFU.

**Q.** And the Activity [5]?
**A.** The Activity was >99.9%.

**Q.** And the Activity [6]?
**A.** The Activity was 6.7 log10CFU.

**Q.** What about the Activity [7] of the same compound?
**A.** Its Activity is >99.99%.

**Q.** What about the “fold change (FC)” value [8] of the same compound?
**A.** The value was 25.

**Q.** And the Activity [9]?
**A.** Its Activity is >99%.

**Q.** What about the Activity [10] of the same compound?
**A.** The Activity was 6.7 log10CFU.

**Q.** What about the viability [11] of the same compound?
**A.** The viability was > 80%.

**Q.** What about the “fold change (FC)” value [12] of the same compound?
**A.** The value was 14.

**Q.** And the Activity [13]?
**A.** Its Activity is 7.39 log10CFU.

**Q.** Which Activity [14] does the source give for `CC/N=c1/cc2sc3cc(NCC)c(C)cc3nc-2cc1C.Cl` here?
**A.** Its Activity is < 70%.

**Q.** Which results are given for `COc1cc(/C=C/C(=O)CC(=O)/C=C/c2ccc(O)c(OC)c2)ccc1O` [CURCUMIN]?
**A.** Activity [15]: 3.6 log10CFU; Activity [16]: >5 log10CFU

**Q.** For `Cc1cc2nc3c(=O)[nH]c(=O)nc-3n(C[C@H](O)[C@H](O)[C@H](O)COP(=O)(O)O)c2cc1C` [RIBOFLAVIN 5'-PHOSPHATE], which Activity [17] is on record?
**A.** The Activity was 97%.

**Q.** And the Activity [18]?
**A.** Its Activity is 95.2%.

**Q.** What does the source list for `Cc1cc2c(cc1C)N(C[C@H](O)C[C@H](O)CO)C1NC(=O)NC(=O)C1=N2` (stereo not given in full)?
**A.** Activity [19]: 90%; Activity [20]: 100%; Activity [21]: 98%; Activity [22]: 99%; Activity [23]: 98%

**Q.** What does the source list for `Cc1cc(O)c2c3c1-c1c(C)cc(O)c4c1C1c5c(c(O)cc(O)c5-c5c(O)cc(O)c(c5C31)C2=O)C4=O` (stereo not given)?
**A.** Activity [24]: 92.2%; Activity [25]: >6 log10CFU
